# Laboratory results taken from patent US4125716A, “Methoxymethyl esters of substituted imidazolidinyl-3-methyl-3-cephem-4-carboxylic acids” (Bristol-Myers Company, priority 1977, dated 1978).
# Like-named read-outs stand apart in the source and are kept apart here.
# Assays:
# Proteus morganii A15153 = assay: MIC, tube dilution technique, Proteus morganii A15153; type: cell-based; conditions: Morganella morganii, overnight, Nutrient Broth, 37° C., read-out: Minimum Inhibitory Concentration
# Description: (§1) The methoxymethyl esters of hetacephalexin and hetacefadroxil are the compounds of Formula I wherein R^1 is hydrogen and hydroxy, respectively.
# [1] = tested on: Streptococcus pyogenes A9604; assay: MIC, tube dilution technique, Streptococcus pyogenes A9604; type: cell-based
# Description: (§2) […]. The methoxymethyl esters of hetacephalexin and hetacefadroxil are the compounds of Formula I wherein R^1 is hydrogen and hydroxy, respectively.
# [2] = tested on: Pseudomonas aeruginosa A9843A; assay: MIC, tube dilution technique, Pseudomonas aeruginosa A9843A; type: cell-based; conditions: read-out: Minimum Inhibitory Concentration
# Description: as §2
# [3] = tested on: Klebsiella pneumoniae A15130; assay: MIC, tube dilution technique, Klebsiella pneumoniae A15130; type: cell-based
# Description: as §2
# Proteus mirabilis A9900 = assay: MIC, tube dilution technique, Proteus mirabilis A9900; type: cell-based
# Description: as §2
# [4] = tested on: Enterobacter cloacae A9656; assay: MIC, tube dilution technique, Enterobacter cloacae A9656; type: cell-based; conditions: overnight, Nutrient Broth, 37° C., read-out: Minimum Inhibitory Concentration
# Description: as §1
# [5] = cited from earlier work
# [6] = tested on: Streptococus pneumoniae A9585; assay: MIC, tube dilution technique, Streptococcus pneumoniae A9585; type: cell-based; conditions: overnight, Nutrient Broth, 37° C., read-out: Minimum Inhibitory Concentration
# Description: as §1
# [7] = tested on: Enterobacter cloacae A9659; assay: MIC, tube dilution technique, Enterobacter cloacae A9659; type: cell-based; conditions: overnight, Nutrient Broth, 37° C., read-out: Minimum Inhibitory Concentration
# Description: as §1
# [8] = tested on: Staphylococcus aureus A9537; assay: MIC, tube dilution technique, Staphylococcus aureus A9537; type: cell-based
# Description: as §2
# Escherichia coli A15119 = assay: MIC, tube dilution technique, Escherichia coli A15119; type: cell-based
# Description: as §2
# [9] = tested on: Serratia marcescens A20019; assay: MIC, tube dilution technique, Serratia marcescens A20019; type: cell-based; conditions: overnight, Nutrient Broth, 37° C., read-out: Minimum Inhibitory Concentration
# Description: as §1
# in vivo [10] = conditions: rat, po, 200 mg/kg; for concentration at 0.5 h / concentration at 1 h / concentration at 2 h: Plasma Level
# Description: (§3) The dosing solutions were stored in an ice bath, used within 6 hours of preparation and an aliquot of each solution was retained for assay.
# (§4) Rats in each treatment group were administered 1 ml of dosing solution per 100 g of body weight. The four additional control rats were administered a glycerol formal:deionized water (1:1) solution (1ml/100 g b.w.) to serve as a vehicle control group.
# (§5) Four rats from each treatment group and one rat from the vehicle control group were killed 15, 30, 60 and 120 minutes after dosing. The rats were killed by exsanguination at the bifurcation of the femoral arteries while they were under light ether anesthesia. Approximately 10 ml of blood were obtained from each rat in 10 ml disposable syringes which had been previously rinsed with a 1% Na heparin in 0.9% NaCl solution. Each sample was immediately transferred from the syringe, after removing the needle, to a heparinized vacutainer tube, gently inverted a few times to mix the anticoagulant and centrifuged at 3000 rpm for 5 minutes in a refrigerated centrifuge at 4° C. to separate plasma. Plasma was transferred to a polypropylene snap-cap tube and stored at -20° C. until assayed. Lungs and brains were removed immediately after exsanguination, rinsed with ice-cold 0.9% NaCl solution, blotted dry with gauze, wrapped separately in pieces of aluminum foil, placed in dry ice for quick freezing and stored at -20° C. until assayed.
# (§6) Plasma samples were diluted with an equal volume of acetone and further diluted with a 1:1 mixture of acetone:1% pH6 phosphate buffer to a concentration approximating the midpoint of the standard curve. Tissues were homogenized with 2 volumes of 1% pH 6 phosphate buffer in a glass homogenizer with a motor driven teflon pestle. Equal volumes of homogenate and acetone were mixed and, following centrifugation, the supernatant was diluted for assay in a manner similar to plasma. Dosing solutions were diluted with acetone:1% pH 6 phosphate buffer (1:1) and assayed similar to plasma.
# in vivo [11] = conditions: rat, po, 200 mg/kg
# Description: as §3, §4, §5, §6
# [12] = Antibiotic concentrations of dosing solutions retained for assay (cup-plate assay, CHCl3 extract); type: physicochemical; conditions: pH 7.4 phosphate buffer / CHCl3
# Description: as §3
# Dosing solutions were diluted with acetone:1% pH 6 phosphate buffer (1:1) and assayed similar to plasma.
# in vivo [13] = conditions: rat, po, 200 mg/kg; for Kp at 0.5 h / Kp at 1 h / Kp at 2 h / Kp at […]: Brain to Plasma Ratio
# Description: as §3, §4, §5, §6
# in vivo [14] = conditions: rat, po, 200 mg/kg, Brain Level
# Description: as §3, §4, §5, §6
# [15] = rat, in vivo, po, 200 mg/kg
# Description: as §3, §4, §5, §6
# [16] = rat, in vivo, po, 200 mg/kg; remark: listed apart in the source
# Description: as §3, §4, §5, §6
# [17] = Tissue levels and tissue penetration following oral administration; type: in vivo, male Sprague-Dawley rats; conditions: rat
# Description: as §3, §4
# Four rats from each treatment group and one rat from the vehicle control group were killed 15, 30, 60 and 120 minutes after dosing. The rats were killed by exsanguination at the bifurcation of the femoral arteries while they were under light ether anesthesia. Approximately 10 ml of blood were obtained from each rat in 10 ml disposable syringes which had been previously rinsed with a 1% Na heparin in 0.9% NaCl solution. Each sample was immediately transferred from the syringe, after removing the needle, to a heparinized vacutainer tube, gently inverted a few times to mix the anticoagulant and centrifuged at 3000 rpm for 5 minutes in a refrigerated centrifuge at 4° C. to separate plasma. Plasma was transferred to a polypropylene snap-cap tube and stored at -20° C. until assayed. […]
# in vivo [18] = conditions: rat, po, 200 mg/kg, Lung Level
# Description: as §3, §4, §5, §6
# [19] = Streptococcus pyogenes A9604, overnight, Nutrient Broth, 37° C., read-out: Minimum Inhibitory Concentration
# [20] = Klebsiella pneumoniae A15130, overnight, Nutrient Broth, 37° C., read-out: Minimum Inhibitory Concentration
# [21] = Proteus mirabilis A9900, overnight, Nutrient Broth, 37° C., read-out: Minimum Inhibitory Concentration
# [22] = A9537, Staph aureus + 50% serum, A9537, overnight, Nutrient Broth, 37° C., read-out: Minimum Inhibitory Concentration
# [23] = A9537, Staphylococcus aureus A9537, overnight, Nutrient Broth, 37° C., read-out: Minimum Inhibitory Concentration
# [24] = Escherichia coli A15119, overnight, Nutrient Broth, 37° C., read-out: Minimum Inhibitory Concentration
smiles,measurement,setting,value
"CC1=C(C(=O)O)N2C(=O)[C@@H](NC(=O)[C@H](N)c3ccc(O)cc3)[C@H]2SC1 [Cefadroxil, cefadroxil, reference compound]",MIC,Proteus morganii A15153,> 125 µg/mL
same,MIC,[1]; [19],0.25 µg/mL
same,MIC,[2],> 125 µg/mL
same,MIC,[3]; [20],32 µg/mL
same,MIC,Proteus mirabilis A9900; [21],8 µg/mL
same,MIC,[4],> 125 µg/mL
same,lipid solubility,[5]; known parent compound,lipid-insoluble
same,ionization and water solubility,[5]; pH of blood plasma,"ionized, water-soluble"
same,MIC,[6],1 µg/mL
same,MIC,[7],> 125 µg/mL
same,MIC,[8]; [22],2 µg/mL
same,MIC,[8]; [23],1 µg/mL
same,MIC,Escherichia coli A15119; [24],16 µg/mL
same,MIC,[9],> 125 µg/mL
"CC1=C(C(=O)O)N2C(=O)[C@@H](NC(=O)[C@H](N)c3ccccc3)[C@H]2SC1 [Cephalexin, cephalexin, reference compound]",MIC,Proteus morganii A15153,> 125 µg/mL
same,MIC,"[1]; Streptococcus pyogenes, A9604, read-out: Minimum Inhibitory Concentration",0.5 µg/mL
same,MIC,[2],> 125 µg/mL
same,MIC,"[3]; Klebsiella pneumoniae, A15130, read-out: Minimum Inhibitory Concentration",16 µg/mL
same,MIC,"Proteus mirabilis A9900; Proteus mirabilis, A9900, read-out: Minimum Inhibitory Concentration",4 µg/mL
same,MIC,[4],> 125 µg/mL
same,MIC,[7],> 125 µg/mL
same,MIC,"[8]; A9537, read-out: Minimum Inhibitory Concentration, Staph aureus + 50% serum, A9537, overnight, Nutrient Broth, 37° C.",2 µg/mL
same,MIC,"[8]; A9537, read-out: Minimum Inhibitory Concentration, Staphylococcus aureus A9537, overnight, Nutrient Broth, 37° C.",1 µg/mL
same,MIC,"Escherichia coli A15119; Escherichia coli, A15119, read-out: Minimum Inhibitory Concentration",8 µg/mL
same,MIC,[9],> 125 µg/mL
COCOC(=O)C1=C(C)CSC2C(N3C(=O)[C@@H](c4ccc(O)cc4)NC3(C)C)C(=O)N12 (stereo partly drawn) [Methoxymethyl Ester of Hetacefadroxil],MIC,Proteus morganii A15153,125 µg/mL
same,MIC,[1]; [19],0.25 µg/mL
same,MIC,[2],> 125 µg/mL
same,MIC,[3]; [20],63 µg/mL
same,MIC,Proteus mirabilis A9900; [21],8 µg/mL
same,MIC,[4],125 µg/mL
same,MIC,[6],1 µg/mL
same,MIC,[7],> 125 µg/mL
same,MIC,[8]; [22],2 µg/mL
same,MIC,[8]; [23],1 µg/mL
same,MIC,Escherichia coli A15119; [24],32 µg/mL
same,MIC,[9],> 125 µg/mL
COCOC(=O)C1=C(C)CSC2C(N3C(=O)[C@@H](c4ccccc4)NC3(C)C)C(=O)N12 (stereo partly drawn) [Methoxymethyl Ester of Hetacephalexin],MIC,Proteus morganii A15153,125 µg/mL
same,Tmax,in vivo [10],≤ 15 min
same,concentration at 0.5 h,in vivo [10],40000 ng/mL
same,concentration at 1 h,in vivo [10],36000 ng/mL
same,concentration at 2 h,in vivo [10],11000 ng/mL
same,concentration at 0.5 h,in vivo [10]; mean,45500 ng/mL
same,concentration at 1 h,in vivo [10]; mean,34200 ng/mL
same,concentration at 2 h,in vivo [10]; mean,14500 ng/mL
same,MIC,[1]; [19],0.25 µg/mL
same,MIC,[2],> 125 µg/mL
same,Kp,in vivo [11],~0.83
same,Tmax,in vivo [11],~15 min
same,MIC,[3]; [20],16 µg/mL
same,CHCl3 extractability / partition into CHCl3,[12],all of the antibiotic activity was CHCl3 extractable
same,MIC,Proteus mirabilis A9900; [21],8 µg/mL
same,Tmax,in vivo [13],~15 min
same,Kp at 0.5 h,in vivo [13],0.042
same,Kp at 1 h,in vivo [13],0.047
same,Kp at 2 h,in vivo [13],0.046
same,Kp at […],in vivo [13],0.056
same,Kp at 0.5 h,in vivo [13]; mean,0.047
same,Kp at 1 h,in vivo [13]; mean,0.051
same,Kp at 2 h,in vivo [13]; mean,0.035
same,Kp at […],in vivo [13]; mean,0.058
same,Kp,in vivo [13]; brain peak as percent of plasma level,~0.06
same,MIC,[4],125 µg/mL
same,concentration at 0.5 h,in vivo [14],1700 ng/g
same,concentration at 1 h,in vivo [14],1700 ng/g
same,concentration at 2 h,in vivo [14],500 ng/g
same,concentration at 0.5 h,in vivo [14]; mean,2200 ng/g
same,concentration at 1 h,in vivo [14]; mean,1800 ng/g
same,concentration at 2 h,in vivo [14]; mean,500 ng/g
same,absorption,[15],rapidly absorbed
same,MIC,[6],1 µg/mL
same,"Lung to Plasma Ratio × 100, mean",[16]; 15 min,82.6
same,"Lung to Plasma Ratio × 100, mean",[16]; 30 min,60.0
same,"Lung to Plasma Ratio × 100, mean",[16]; 60 min,67.2
same,"Lung to Plasma Ratio × 100, mean",[16]; 120 min,33.0
same,MIC,[7],125 µg/mL
same,penetration of tissue cell membranes and blood-brain barrier compared with cephalexin,[17],more readily penetrates tissue cell membranes and crosses the blood-brain barrier
same,MIC,[8]; [22],2 µg/mL
same,MIC,[8]; [23],1 µg/mL
same,concentration at 0.5 h,in vivo [18],23000 ng/g
same,concentration at 1 h,in vivo [18],22000 ng/g
same,concentration at 2 h,in vivo [18],4100 ng/g
same,concentration at 0.5 h,in vivo [18]; mean,27000 ng/g
same,concentration at 1 h,in vivo [18]; mean,22300 ng/g
same,concentration at 2 h,in vivo [18]; mean,4700 ng/g
same,MIC,Escherichia coli A15119; [24],8 µg/mL
same,MIC,[9],> 125 µg/mL
